This note sets out measurements from patent US11702422B2, “Imidazopyridazines as modulators of IL-17” (Janssen Pharmaceutica NV, priority 2020, dated 2023).

SMILES strings stand for the structures.

The test system of experiment [1] is IL-17A-induced G-CSF production in human normal keratinocyte (NHK). In words: NHK Assay: IL-17A-induced G-CSF production in human normal keratinocytes. Type of experiment: cell-based. To be noted: 24 h, adult normal human keratinocytes, IL-17A 5 ng/mL, simple average if tested more than once. The gist of the method: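 Inhibition of IL-17A-driven G-CSF release is measured in adult keratinocytes stimulated for 24 h at 37° C with 5 ng/mL human IL-17A that had been pre-incubated with compound for 1 h. IC50 comes from HTRF G-CSF levels; cell viability is checked in parallel by luminescent ATP assay.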

Experiment [2] addresses IL-17A(FLAG-Tagged): IL-17RA(His-Tagged) (Homo sapiens, UniProt Q16552, K93Q). In words: IL-17A(FLAG-Tagged): IL-17RA(His-Tagged) Binding Disruption Eu-HTRF Assay. To be noted: IL-17A/IL-17RA binding disruption, simple average if tested more than once. The method, boiled down:
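IC50 comes from a one-site competition fit of the HTRF 665/620 nm ratio. Compound dilutions (2-fold, 22 points) were held 1 h rt with FLAG-tagged IL-17A dimer, then His-tagged IL-17RA plus Eu-cryptate anti-FLAG and D2 anti-His antibodies were added for 2 h rt.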
On the technique in general: TR-FRET usually uses a lanthanide donor and a delayed reading to cut background.

UniProt Q16552, sequence (Q16552 with tags, fused parts or gaps K93Q): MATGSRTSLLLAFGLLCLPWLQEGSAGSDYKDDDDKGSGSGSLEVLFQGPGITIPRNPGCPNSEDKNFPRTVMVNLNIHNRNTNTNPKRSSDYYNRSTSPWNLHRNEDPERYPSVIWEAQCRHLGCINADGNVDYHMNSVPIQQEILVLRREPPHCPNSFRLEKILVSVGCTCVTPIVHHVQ

What is called IC50 is the concentration needed to halve the response being measured. Lower therefore signals inhibition by little substance. `O=C(CC1CC(F)(F)C1)N[C@@H](c1cnn2cc([C@@H](NC(=O)c3nonc3C3CC3)C3CCC(F)(F)CC3)nc2c1)C1CCOCC1` (relative stereo) [Example 536, 4-Cyclopropyl-N—((S)-(7-((R*)-1-(2-(3,3-difluorocyclobutyl)acetamido)(tetrahydro-2H-pyran-4-yl)methylimidazo[1,2-b]pyridazin-2-yl)(4,4-difluorocyclohexyl)methyl)-1,2,5-oxadiazole-3-carboxamide]: the IC50 in experiment [1] (Homo sapiens, Keratinocyte) worked out at 12 nM; in experiment [2] it was 49 nM.
Take `O=C(CCC(F)(F)F)NC(c1cnn2cc([C@@H](NC(=O)c3cnn(CCC(F)(F)F)c3)C3CCC(F)(F)CC3)nc2c1)C1CC1` (single isomer, unassigned) [Example 6, N—((S)-(7-((R*)-Cyclopropyl(4,4,4-trifluorobutanamido)methyl)imidazo[1,2-b]pyridazin-2-yl)(4,4-difluorocyclohexyl)methyl)-1-(3,3,3-trifluoropropyl)-1H-pyrazole-4-carboxamide]: the IC50 worked out at 570 nM in experiment [1] and 290 nM in experiment [2].
For the compound `O=C(CCC(F)(F)F)NC(c1cnn2cc([C@@H](NC(=O)c3cnn(CCC(F)(F)F)c3)C3CCC(F)(F)CC3)nc2c1)C1CC1` (single isomer, unassigned) [Example 7, N—((S)-(7-((S*)-Cyclopropyl(4,4,4-trifluorobutanamido)methyl)imidazo[1,2-b]pyridazin-2-yl)(4,4-difluorocyclohexyl)methyl)-1-(3,3,3-trifluoropropyl)-1H-pyrazole-4-carboxamide], the figures for the IC50 in experiment [1] and in experiment [2] were > 20000 nM and 4900 nM, respectively.
Regarding `O=C(CC1CC(F)(F)C1)NC(c1cnn2cc([C@@H](NC(=O)c3cnn(CCC(F)(F)F)c3)C3CCC(F)(F)CC3)nc2c1)C1CC1` (single isomer, unassigned) [Example 8, N—((S)-(7-((R*)-Cyclopropyl(2-(3,3-difluorocyclobutyl)acetamido)methyl)imidazo[1,2-b]pyridazin-2-yl)(4,4-difluorocyclohexyl)methyl)-1-(3,3,3-trifluoropropyl)-1H-pyrazole-4-carboxamide], the values for the IC50 in experiment [1] and in experiment [2] were 360 nM and 220 nM, respectively.
On to `O=C(CC1CC(F)(F)C1)NC(c1cnn2cc([C@@H](NC(=O)c3cnn(CCC(F)(F)F)c3)C3CCC(F)(F)CC3)nc2c1)C1CC1` (single isomer, unassigned) [Example 9, N—((S)-(7-((S*)-Cyclopropyl(2-(3,3-difluorocyclobutyl)acetamido)methyl)imidazo[1,2-b]pyridazin-2-yl)(4,4-difluorocyclohexyl)methyl)-1-(3,3,3-trifluoropropyl)-1H-pyrazole-4-carboxamide], for which the IC50 in experiment [1] is > 20000 nM; in experiment [2], 8300 nM.
Taken in the same sequence, the figures for `CC(C)n1nccc1C(=O)N[C@H](c1cn2ncc(C(NC(=O)CC(C(F)(F)F)C(F)(F)F)C3CC3)cc2n1)C1CCC(F)(F)CC1` (single isomer, unassigned) [Example 10, N—((S)-(7-((R*)-Cyclopropyl(4,4,4-trifluoro-3(trifluoromethyl)butanamido)methyl)imidazo[1,2-b]pyridazin-2-yl)(4,4-difluorocyclohexyl)methyl)-1-isopropyl-1H-pyrazole-5-carboxamide] were 44 nM and 210 nM.
On to `CC(C)n1nccc1C(=O)N[C@H](c1cn2ncc(C(NC(=O)CC(C(F)(F)F)C(F)(F)F)C3CC3)cc2n1)C1CCC(F)(F)CC1` (single isomer, unassigned) [Example 11, N-((S)-(7-((S*)-Cyclopropyl(4,4,4-trifluoro-3-(trifluoromethyl)butanamido)methyl)imidazo[1,2-b]pyridazin-2-yl)(4,4-difluorocyclohexyl)methyl)-1-isopropyl-1H-pyrazole-5-carboxamide], for which the results for the IC50 in experiment [1] and in experiment [2] were 1400 nM and 690 nM, respectively.
Consider `O=C(CCC(F)(F)F)NC(c1cnn2cc([C@@H](NC(=O)c3ccccc3)C3CCC(F)(F)CC3)nc2c1)C1CC1` (single isomer, unassigned) [Example 12, N—((S)-(7-((R*)-Cyclopropyl(4,4,4-trifluorobutanamido)methyl)imidazo[1,2-b]pyridazin-2-yl)(4,4-difluorocyclohexyl)methyl)benzamide], for which the figures for the IC50 in experiment [1] and in experiment [2] were 180 nM and 85 nM, respectively.
The corresponding values for `CC(C)n1nccc1C(=O)N[C@H](c1cn2ncc(C(NC(=O)CCC(F)(F)F)C3CC3)cc2n1)C1CCC(F)(F)CC1` (single isomer, unassigned) [Example 14, N—((S)-(7-((R*)-Cyclopropyl(4,4,4-trifluorobutanamido)methyl)imidazo[1,2-b]pyridazin-2-yl)(4,4-difluorocyclohexyl)methyl)-1-isopropyl-1H-pyrazole-5-carboxamide] are 50 nM and 120 nM.
Regarding `CC(C)n1nccc1C(=O)N[C@H](c1cn2ncc(C(NC(=O)CCC(F)(F)F)C3CC3)cc2n1)C1CCC(F)(F)CC1` (single isomer, unassigned) [Example 15, N—((S)-(7-((S*)-Cyclopropyl(4,4,4-trifluorobutanamido)methyl)imidazo[1,2-b]pyridazin-2-yl)(4,4-difluorocyclohexyl)methyl)-1-isopropyl-1H-pyrazole-5-carboxamide], the results for the IC50 in experiment [1] and in experiment [2] were 4800 nM and 1900 nM, respectively.
Taken in the same sequence, the figures for `O=C(CC(C(F)(F)F)C(F)(F)F)NC(c1cnn2cc([C@@H](NC(=O)c3ccccc3)C3CCC(F)(F)CC3)nc2c1)C1CC1` (single isomer, unassigned) [Example 16, N—((S)-(7-((R*)-Cyclopropyl(4,4,4-trifluoro-3-(trifluoromethyl)butanamido)methyl)imidazo[1,2-b]pyridazin-2-yl)(4,4-difluorocyclohexyl)methyl)benzamide] were 130 nM and 130 nM.
Taken in the same sequence, the figures for `O=C(CC(C(F)(F)F)C(F)(F)F)NC(c1cnn2cc([C@@H](NC(=O)c3ccccc3)C3CCC(F)(F)CC3)nc2c1)C1CC1` (single isomer, unassigned) [Example 17, N—((S)-(7-((S*)-Cyclopropyl(4,4,4-trifluoro-3-(trifluoromethyl)butanamido)methyl)imidazo[1,2-b]pyridazin-2-yl)(4,4-difluorocyclohexyl)methyl)benzamide] were 1200 nM and 1300 nM.
On to `O=C(CCC(F)(F)F)NC(c1cnn2cc([C@@H](NC(=O)c3cnn(CCC(F)(F)F)n3)C3CCC(F)(F)CC3)nc2c1)C1CC1` (single isomer, unassigned) [Example 18, N—((S)-(7-((R*)-Cyclopropyl(4,4,4-trifluorobutanamido)methyl)imidazo[1,2-b]pyridazin-2-yl)(4,4-difluorocyclohexyl)methyl)-2-(3,3,3-trifluoropropyl)-2H-1,2,3-triazole-4-carboxamide], for which the figures for the IC50 in experiment [1] and in experiment [2] were 420 nM and 190 nM, respectively.
Taken in the same sequence, the figures for `O=C(CCC(F)(F)F)NC(c1cnn2cc([C@@H](NC(=O)c3cnn(CCC(F)(F)F)n3)C3CCC(F)(F)CC3)nc2c1)C1CC1` (single isomer, unassigned) [Example 19, N—((S)-(7-((S*)-Cyclopropyl(4,4,4-trifluorobutanamido)methyl)imidazo[1,2-b]pyridazin-2-yl)(4,4-difluorocyclohexyl)methyl)-2-(3,3,3-trifluoropropyl)-2H-1,2,3-triazole-4-carboxamide] were 3800 nM and 3900 nM.
Regarding `O=C(CC1CC(F)(F)C1)NC(c1cnn2cc([C@@H](NC(=O)c3ccn(CCC(F)(F)F)n3)C3CCC(F)(F)CC3)nc2c1)C1CC1` (single isomer, unassigned) [Example 20, N—((S)-(7-((R*)-Cyclopropyl(2-(3,3-difluorocyclobutyl)acetamido)methyl)imidazo[1,2-b]pyridazin-2-yl)(4,4-difluorocyclohexyl)methyl)-1-(3,3,3-trifluoropropyl)-1H-pyrazole-3-carboxamide], the IC50 stood at 650 nM in experiment [1] (Homo sapiens, Keratinocyte) and 160 nM in experiment [2].
Taken in the same sequence, the figures for `O=C(CCC(F)(F)F)NC(c1cnn2cc([C@@H](NC(=O)c3ccn(CCC(F)(F)F)n3)C3CCC(F)(F)CC3)nc2c1)C1CC1` (single isomer, unassigned) [Example 21, N—((S)-(7-((R*)-Cyclopropyl(4,4,4-trifluorobutanamido)methyl)imidazo[1,2-b]pyridazin-2-yl)(4,4-difluorocyclohexyl)methyl)-1-(3,3,3-trifluoropropyl)-1H-pyrazole-3-carboxamide] were 720 nM and 230 nM.
Turning to `O=C(CC1CC(F)(F)C1)NC(c1cnn2cc([C@@H](NC(=O)c3cnn(CCC(F)(F)F)n3)C3CCC(F)(F)CC3)nc2c1)C1CC1` (single isomer, unassigned) [Example 22, N—((S)-(7-((R*)-Cyclopropyl(2-(3,3-difluorocyclobutyl)acetamido)methyl)imidazo[1,2-b]pyridazin-2-yl)(4,4-difluorocyclohexyl)methyl)-2-(3,3,3-trifluoropropyl)-2H-1,2,3-triazole-4-carboxamide], the IC50 was 320 nM in experiment [1] (Homo sapiens, Keratinocyte) and 140 nM in experiment [2].
The corresponding values for `Cn1nccc1C(=O)N[C@H](c1cn2ncc(C(NC(=O)CCC(F)(F)F)C3CC3)cc2n1)C1CCC(F)(F)CC1` (single isomer, unassigned) [Example 23, N—((S)-(7-((R*)-Cyclopropyl(4,4,4-trifluorobutanamido)methyl)imidazo[1,2-b]pyridazin-2-yl)(4,4-difluorocyclohexyl)methyl)-1-methyl-1H-pyrazole-5-carboxamide] are 82 nM and 54 nM.
